Laboratory results from patent US20080318999A1, “Tricyclic Benzimidazoles and Their Use as Metabotropic Glutamate Receptor Modulators” (priority 2005, published 2008).

Molecular target: T1, human mGluR2 (Homo sapiens, UniProt Q14416)
T1 construct: If the GTPgammaS assay gave them: nothing
Assay: mGluR2 allosteric activator assays described herein (FLIPR calcium mobilization in HEK 293 mGluR2/CaR cells; [35S]-GTPγS binding with CHO membranes)
Type: cell-based
Settings: potentiator / positive allosteric modulator activity at mGluR2; the patent does not say which of the two described assays (FLIPR or GTPγS)
From the text: The pharmacological properties of the compounds of the invention can be analyzed using standard assays for functional activity. Examples of glutamate receptor assays are well known in the art as described in, for example, Aramori et al., 1992, Neuron, 8:757; Tanabe et al., 1992, Neuron, 8:169; Miller et al., 1995, J. Neuroscience, 15:6103; Balazs, et al., 1997, J. Neurochemistry, 1997, 69:151. The methodology described in these publications is incorporated herein by reference. Conveniently, the compounds of the invention can be studied by means of an assay that measures the mobilization of intracellular calcium, [Ca^2+]i in cells expressing mGluR2.
Fluorometric Imaging Plate Reader (FLIPR) analysis was used to detect allosteric activators of mGluR2 via calcium mobilization. […]
FLIPR experiments were done using a laser setting of 0.8 W and a 0.4 second CCD camera shutter speed. […] An addition of test compound (0.01 μM to 30 μM in duplicate) was made after 10 seconds of baseline fluorescent readings were recorded on FLIPR. Fluorescent signals were then recorded for an additional 75 seconds at which point a second addition of DCG-IV (0.2 μM) was made and fluorescent signals were recorded for an additional 65 seconds. Fluorescent signals were measured as the peak height of the response within the sample period. […]

T1 sequence (Q14416 19-819 limits assumed): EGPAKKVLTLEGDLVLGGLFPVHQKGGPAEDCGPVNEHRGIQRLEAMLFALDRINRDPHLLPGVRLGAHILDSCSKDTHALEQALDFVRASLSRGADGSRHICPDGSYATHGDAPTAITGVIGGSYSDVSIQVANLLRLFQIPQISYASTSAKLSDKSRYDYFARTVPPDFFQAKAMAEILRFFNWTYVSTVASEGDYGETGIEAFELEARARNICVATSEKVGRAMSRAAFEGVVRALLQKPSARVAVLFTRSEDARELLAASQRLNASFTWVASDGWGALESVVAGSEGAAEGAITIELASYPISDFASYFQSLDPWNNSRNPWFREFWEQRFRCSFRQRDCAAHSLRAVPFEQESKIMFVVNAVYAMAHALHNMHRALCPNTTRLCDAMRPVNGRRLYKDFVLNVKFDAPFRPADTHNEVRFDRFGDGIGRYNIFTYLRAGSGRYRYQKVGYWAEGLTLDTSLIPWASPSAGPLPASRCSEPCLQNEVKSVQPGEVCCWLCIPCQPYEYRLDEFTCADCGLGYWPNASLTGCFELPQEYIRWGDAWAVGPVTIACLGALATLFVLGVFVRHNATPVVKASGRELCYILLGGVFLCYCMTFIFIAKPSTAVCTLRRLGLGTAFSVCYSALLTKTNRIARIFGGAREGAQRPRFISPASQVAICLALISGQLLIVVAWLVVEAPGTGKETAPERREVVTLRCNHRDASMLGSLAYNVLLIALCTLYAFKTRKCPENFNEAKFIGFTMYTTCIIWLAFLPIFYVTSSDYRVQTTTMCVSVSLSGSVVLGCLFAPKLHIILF

EC50: 1110 nM
SMILES: O=C1CCn2c(CN3CCC(c4ccc(F)cc4)CC3)nc3cc(F)cc1c32 [Example 28.1, 8-Fluoro-2-[4-(4-fluoro-phenyl)-piperidin-1-ylmethyl]-4,5,9a,9b-tetrahydroimidazo[4,5,1-ij]quinolin-6-one]
